Test results as given in patent publication US5801182A, “Amine substituted compounds” (Cell Therapeutics, Inc., priority 1995, dated 1998).

How the values were obtained:
[1] = Viability of 293-EBNA cells (alamarBlue colorimetric assay); assay type: cell-based; conditions: human, 293-ebna cells; alamarBlue; FIGS. 18, 20, 21; read-out: LD50, 293-EBNA cells
Experimental: (§1) The effect of respective inventive compounds on the viability of 293-EBNA cells was measured by a colorimetric assay that uses the alamarBlue® dye (purchased from Alamar Biosciences, Inc.) to report cell proliferation, viability and cytotoxicity. This dye is an oxidation-reduction (Redox) indicator that changes color in response to chemical reduction of growth medium resulting from cell growth. The general procedure involves adding alamarBlue® in an amount equal to 10% of the culture volume, returning the culture to incubator for four hours, and measuring the absorbance at 570 nm after subtraction of background absorbance at 600 nm.

[2] = test system: Mouse bone marrow cells (CFU-GM); assay: CFU-GM colony assay, effect on normal bone marrow cells; assay type: cell-based; conditions: for toxicity for normal mouse marrow cells: 8 hours incubation, CFU-GM after 7 days, FIGS. 12-16; for effect on normal cells compared to known chemotherapeutic compounds in vitro: vs vinblastine, 5-fluorouracil, doxorubicin or cisplatinum
Source text: This example illustrates a method for examining an effect of the inventive compounds, showing potential as cancer therapies on normal cells. This assay has been used clinically to evaluate recovery of patients' marrow following chemotherapy or radiation. In this specific example, inventive compounds nos.
Mouse bone marrow cells are useful in this assay because they produce colonies, which can later be counted, in culture. The colonies are called colony forming unit-granulocyte macrophage (CFU-GM) and depend on a source of colony stimulating factor for growth.
Cells were cultured with inventive compounds nos. 3563, 3576, 3581, 3584 and 4500, to comparatively evaluate an effect on normal cells of inventive compounds identified as potential cancer therapies. Procedurally, cells were incubated for 8 hours with various concentrations of these compounds. A negative control without any compound was simultaneously prepared. After 8 hours, the incubated cells were washed thoroughly and a consistent number were subsequently plated to obtain CFU-GM. Colonies were permitted to grow for 7 days at 37° C., in 5% CO2. After 7 days of growth, colony growths were counted microscopically. Data obtained in this assay for inventive compounds nos. 3563, 3576, 3581, 3584 and 4500 are plotted in FIGS. 12, 13, 14, 15 and 16, respectively. The data in the figures are shown to compare the colonies counted for cells incubated with varying concentrations of the compounds tested against the negative control, without compound. At concentrations ranging from 5 to 30 μM, more colonies existed for cells incubated with the inventive potential cancer compound than with known, chemotherapeutic agents. Compound no.

[3] = test system: HIV long terminal repeat (LTR) promotor; assay: Inhibition of reporter gene (alkaline phosphatase) expression directed by HIV-LTR promotor in 293-EBNA cells; assay type: cell-based; conditions: Human immunodeficiency virus 1; reporter gene directed by HIV-LTR promotor in 293-EBNA cells; FIGS. 17, 19, 21
Source text: This example is an assay used to measure anti-viral activity of inventive compounds nos. […] This assay is predictive of anti-viral activity for retroviruses. Specifically,a plasmid construct, pHIV.AP, using the human immunodeficiency virus (HIV) long terminal repeat (LTR) promotor [derived from pU3R-III CAT (Sodroski et al. Science, Vol. 227, page 171, 1985) to direct the expression of secreted human placental alkaline phosphatase reporter gene and an expression vector for a 72 amino acids tat protein from HIV (Frankel et al., Cell, Vol. 55, pages 1189-1193, 1988) were transfected into a tumor cell line (e.g., 293-EBNA cells). The stably transfected cells were treated with various concentrations of the inventive compounds. The expression of the alkaline phosphatase (AP) reporter gene in the individual cultures was then measured by following the change in absorbance at A405 of cell conditioned media in the presence of a suitable substrate (e.g., ortho-nitrophenol phosphate). Berger et al., Gene, Vol. 66, pages 1-10, 1988.

[4] = test system: human stromal cells; assay: PDGF-induced proliferation in human stromal cells; assay type: cell-based; conditions: for concentration at which comparative compounds' activity is apparent: 50 ng/ml PDGF-BB, human stromal cells, FIG. 23
Experimental: 3506 on PDGF-induced proliferation in human stromal cells. Procedurally, human stromal cells were starved in serum-free media for 24 hours and then stimulated with 50 ng/ml PDGF. Compound no. 3506 was added at various concentrations one hour prior to PDGF stimulation and pulsed for 24 hours. Cells were harvested and cell proliferation measured having background counts (i.e., starved cells) at about 10% of control levels.
Human stromal cells were starved in serum-free media for 24 hours and then stimulated with 50 ng/ml PDGF-BB. The drugs were added at various concentrations one hour prior to PDGF stimulation. Tritiated thymidine was added at the time of PDGF stimulation and pulsed for 24 hours. Cells were harvested and cell proliferation measured (FIG. 23). Background counts (i.e., starved cells) were about 10% of control levels.

[5] = test system: thymocytes; assay: Thymocyte proliferation and activation, co-stimulated with Con A and IL-2; assay type: cell-based, Balb/C mice; conditions: Mus musculus, 2 h, compound added two hours prior, FIGS. 6-11
Experimental: 3506, 3556, 3563, 3576, 3581, 3582 and 3584 on thymocyte proliferation and activation, co-stimulated with Concanavalin A (Con A) and interleukin-2 (IL-2), at various concentrations of the compounds (IC50). Con A and IL-2 together stimulate T cell proliferation and differentiation.
Thymuses, obtained from normal, female Balb/C mice, were dissociated and plated into 96-well plates at a density of 2×10^5 cells/well. Con A ([…]) and IL-2 (15 U/ml) were added to the wells. The cells were incubated for 4 days at 37° C. On day 4, the cells were pulsed with tritiated thymidine and incubated for an additional 4 hours. Incorporated tritiated thymidine of harvested cells was determined in a liquid scintillation counter. Results plotted as dose concentration versus proliferation for inventive compounds nos. 3506, 3556, 3563, 3576, 3581, 3582 and 3584 are shown in FIGS. 6 (3506), 7 (3556), 8 (3563), 9 (3576), 10 (3581 and 3582) and 11 (3584). Respective concentrations of inventive compound (shown in the figures) were added two hours prior to Con A and IL-2 activation. Background counts were less than 200 cpm.

[6] = test system: 293-EBNA cells; assay: Viability of 293-EBNA cells (alamarBlue colorimetric assay); assay type: cell-based
Experimental: as §1

[7] = test system: Balb/3T3 cells; assay: Viability (cytotoxicity) assay of Balb/3T3 cells with BCECF; assay type: cell-based; conditions: at the concentrations at which the compounds inhibit proliferation; vs control value of 100%; FIGS. 3 and 5
Experimental: In conjunction with the Balb/3T3 proliferation assay, a related viability assay was conducted to assess the cytotoxicity of compounds which inhibit proliferation in this system. The assay protocol was identical to that performed above except that tritiated thymidine was not added after the 24 hour incubation with PDGF. In this cytotoxicity assay, after incubating the cells, a 10 μM solution of BCECF was added and the cells were incubated for 30 minutes at 37° C. Following this incubation, BCECF was replaced with PBS and the plate read for fluorescence in a Millipore cytofluorometer. Data obtained was plotted as a percent of control versus concentration of inventive compound tested. FIGS. 3 and 5 represent the results of this viability assay, for compounds nos. 3556 and 4500, respectively.

[8] = test system: Balb/3T3 cells; assay: PDGF-induced proliferation of Balb/3T3 cells (tritiated thymidine); assay type: cell-based; conditions: Mus musculus, BALB/3T3, 24 h; PDGF-stimulated; FIGS. 2 and 4; read-out: concentrations inhibiting proliferation of Balb/3T3 cells stimulated by PDGF
Experimental: Disregulated PDGF-proliferative response has been linked to a variety of diseases, including, e.g., restenosis, atherosclerosis, fibrosis, and tumor cell angiogenesis. Balb/3T3 cells respond vigorously to PDGF stimulation, and are useful in vitro models for further study of PDGF-induced proliferation.
Balb/3T3 cells were plated in low serum-containing medium for 24 hours prior to stimulation with various concentrations of inventive compounds nos. 3556 and 4500. PDGF was added at varying concentrations along with tritiated thymidine. The cells were allowed to incubate for one day, following addition of PDGF and thymidine. Twenty-four hours later, the cells were harvested and counted by liquid scintillation counting. FIGS. 2 and 4 report data for inventive compounds nos. 3556 and 4500, respectively, obtained in this proliferation assay. The results shown in each respective figure illustrate that inventive compounds nos.

[9] = test system: JR-CSF strain of HIV-1; assay: HIV-1 JR-CSF infection of human peripheral blood lymphocytes (p24 antigen ELISA); assay type: cell-based; conditions: JR-CSF HIV-1, FIG. 22
Experimental: 3556, to prevent promotion of fresh isolates of JR-CSF strain of HIV-1 infection of human peripheral blood lymphocytes (PBL).
In a protocol for infecting a PBL cell suspension, JR-CSF HIV-1 was clarified at low-speed centrifugation (2,000-3,000 rpm) or filtration and stored in aliquots at -70° C. To maintain consistent titers, HIV-1 aliquots were not subjected to repeated freezing and thawing and any remainder was discarded. Virus aliquots were thawed at room temperature or under cold running water for more rapid thawing and maintained in ice after thawing. Just prior to infection of PBL cells, the supernatant or dilution were warmed to room temperature.
Human PBL cells taken from a suitable donor were centrifuged down at 1000 rpm for 5-10 minutes at room temperature. While cells were spinning, the virus inoculum was prepared in medium by adding 10 μg/ml Polybrene®. The centrifuged cells were resuspended in virus inoculum, using 1 ml of virus inoculum per 10^7 cells. A more efficient HIV-1 infection is obtained with smaller amounts of inoculum. The cells were incubated at 37° C. in the presence of virus inoculum for 2 hours, shaking the suspension every half hour. After 2 hours, the suspension was spun down, the virus inoculum removed and the cells were washed with 10 ml of fresh media. […]

Row | SMILES | CC50 [1] [µM] | IC50 [3] [µM] | other results
1 | CCCCCCCCCCCCNCCCCCCCCCCCn1c(=O)c2c(ncn2C)n(C)c1=O [compound no. 3563] | < 7 | < 4 | toxicity for normal mouse marrow cells [2]: most cytotoxic to proliferative potential of the mouse marrow cells; effect on normal cells compared to known chemotherapeutic compounds in vitro [2]: less deleterious to normal cells
2 | CCCCCCCCCCCCCCNCCCCCCCCCCCn1c(=O)c2c(ncn2C)n(C)c1=O [compound 3582] | < 5 | < 5 | 
3 | CCCCCCCCCCCCCNCCCCCCCCCCCn1c(=O)c2c(ncn2C)n(C)c1=O [compound 4507] | < 7 | < 4 | 
4 | CCCCCCCCCCCCCCCCNCCCCCCCCCCCn1c(=O)c2c(ncn2C)n(C)c1=O [compound 3584] | < 15 | < 10 | effect on normal cells compared to known chemotherapeutic compounds in vitro [2]: less deleterious to normal cells
5 | CC(=O)CCCCCCn1c(=O)c2c(ncn2C)n(C)c1=O [A, 1-(7-oxooctyl)-3,7-dimethylxanthine] |  |  | concentration at which comparative compounds' activity is apparent [4]: millimolar concentrations
6 | CCCCCCCCCCCNCCCCCCn1c(=O)c2c(ncn2C)n(C)c1=O [compound no. 3506] |  |  | PDGF-induced proliferation in human stromal cells ([4]; 50 ng/ml PDGF, compound added one hour prior, FIG. 1): inhibition of PDGF-induced proliferation; IC50 [5]: 2.3 µM
7 | CC(CCCCn1c(=O)c2c(ncn2C)n(C)c1=O)N(C)C (stereo not drawn) [B, 1-(5-dimethylaminohexyl)-3,7-dimethylxanthine] |  |  | concentration at which comparative compounds' activity is apparent [4]: millimolar concentrations
8 | CCCCCCCCCCCCCCCNCCCCCCCCCCCn1c(=O)c2c(ncn2C)n(C)c1=O [compound no. 4508] | < 10 | < 10 | 
9 | CCCCCCN(CCCCCC)CCCCCCCCCCCn1c(=O)c2c(ncn2C)n(C)c1=O [compound no. 3590] |  | < 20 | cytotoxicity to 293-EBNA cells (in words) [6]: little cytotoxicity even at >32 μM
10 | CCCCCCCCCCNCCCCCCCCCCCn1c(=O)c2c(ncn2C)n(C)c1=O [compound 3581] | < 10 | < 5 | effect on normal cells compared to known chemotherapeutic compounds in vitro [2]: less deleterious to normal cells
11 | CCCCCCCCCCCCN(C)CCCCCCCCCCCn1c(=O)c2c(ncn2C)n(C)c1=O [compound 3576] | < 15 | < 10 | effect on normal cells compared to known chemotherapeutic compounds in vitro [2]: less deleterious to normal cells; IC50 [5]: 0.26 µM
12 | CCCCCCN(C)CCCCCCCCCCCn1c(=O)c2c(ncn2C)n(C)c1=O [compound no. 4500] |  | < 10 | cytotoxicity to Balb/3T3 cells [7]: not cytotoxic to any cells; toxicity for normal mouse marrow cells [2]: virtually no toxicity at elevated concentrations; minimal effective concentration [8]: < 30 µM
13 | CCCCCCCCNCCCCCCCCCCCn1c(=O)c2c(ncn2C)n(C)c1=O [compound no. 3556, 1-(11-octylaminoundecyl)-3,7-dimethylxanthine] | ~12.5 | ~2.5 | cytotoxicity to Balb/3T3 cells [7]: not cytotoxic to any cells; concentration at which cytotoxicity becomes significant [6]: > 10 µM; decrease of HIV-1 infection of PBL ([9]; 1 μM): decreased infection by about two to three fold; HIV-1 infection of PBL ([9]; 10 and 20 μM): virtually eliminated viral infection; minimal effective concentration [8]: < 30 µM
14 | CCCCCCNCCCCCCCCCCCn1c(=O)c2c(ncn2C)n(C)c1=O [compound no. 3580] | < 30 | < 10 | cytotoxicity to 293-EBNA cells (in words) [6]: minimal cytotoxicity
15 | COc1cc(CNCCCCCCCCCCCn2c(=O)c3c(ncn3C)n(C)c2=O)cc(OC)c1OC [compound no. 3593] |  | < 25 | cytotoxicity to 293-EBNA cells (in words) [6]: little cytotoxicity, even at >32 μM
